The values that follow come from the NIST ThermoML archive (doi:10.1016/j.tca.2006.04.022).

The conditions of this series: Adiabatic calorimetry.

± gives the expanded uncertainty stated by the source.

Take `CCOS(=O)(=O)[O-].CCn1cc[n+](C)c1` [1-ethyl-3-methylimidazolium ethyl sulfate]: the Glass transition temperature was -80.30 ± 0.05 °C.
